Assay results reported in patent US4889634A, “Dialysate solution containing hydroxypropyl-beta-cyclodextrin and method of using same” (priority 1988, dated 1989).

Tested on: rats [Crl:CD(SD) BR strain]
Assay: 14-day intravenous toxicity study in rats
Format: in vivo, rat
Procedure: As part of the toxicological evaluation of HPBCD, control groups of animals were dosed with HPBCD alone.
Two groups (5/sex/group) of rats [Crl:CD(SD) BR strain] were used for this study. Control rats were given 200 mg of salt per kilogram of body weight intravenously administered in a saline control solution comprising 20% salt by weight in water. The saline control was administered every second day for 14 days (i.e. seven injections). The treated rats were given 200 mg of HPBCD per kilogram of body weight intravenously administered (200 mg/kg i.v. HPBCD) via a HPBCD solution containing 20% HPBCD by weight in water on the same injection schedule. […] At the end of the study the animals were necropsied, gross pathology was observed, histopathological samples were prepared and blood was drawn for clinical laboratory measurements.

[1] = male rats, 200 mg/kg i.v., 14 days

hydroxypropyl-beta-cyclodextrin [HPBCD]
Gross pathology (in words): No changes in gross pathology attributable to HPBCD treatment were observed
Abumin/Globulin (Ratio) [1]: 0.9 ± 0.08
Alanine amino transferase [1]: 24.0 ± 6.70 IU/L
Albumin [1]: 3.0 ± 0.08 G/dL
Alkaline phosphatase [1]: 137.0 ± 26.20 IU/L
Aspartate amino transferase [1]: 124.0 ± 37.36 IU/L
Basophils [1]: 0.00 ± 0.00 × 10^3 /mm^3
Blood urea nitrogen [1]: 11.2 ± 0.87 mg/dL
Calcium [1]: 9.8 ± 0.31 mg/dL
Chlorine [1]: 106.0 ± 1.80 mmol/L
Cholesterol [1]: 33.0 ± 7.10 mg/dL
Creatinine [1]: 0.8 ± 0.04 mg/dL
Eosinophils [1]: 0.07 ± 0.05 × 10^3 /mm^3
Globulin [1]: 3.3 ± 0.20 G/dL
Glucose (blood) [1]: 94.1 ± 7.43 mg/dL
Hematocrit [1]: 48.6 ± 1.74%
Hemoglobin [1]: 14.6 ± 0.51 G/DL
Ionic phosphate [1]: 9.7 ± 0.34 mg/dL
Lymphocytes [1]: 7.13 ± 1.08 × 10^3 /mm^3
Mean corpuscle [1]: 64.0 ± 2.20 fL
Mean corpuscle hemoglobin [1]: 19.3 ± 0.60 pg
Mean corpuscle hemoglobin concentrative [1]: 30.0 ± 0.35%
Monocytes [1]: 0.08 ± 0.01 × 10^3 /mm^3
Normal blood cells [1]: 0 ± 0.0 /100 white blood cells
Platelet count [1]: 1020.0 ± 79.5 × 10^3 /mm^3
Potassium [1]: 4.7 ± 0.15 mmol/L
Red blood cell [1]: 7.55 ± 0.17 × 10^6 /mm^3
Segmented neutrophils [1]: 0.61 ± 0.44 × 10^3 /mm^3
Sodium [1]: 142 ± 1.5 mM
Total bilirubin [1]: 0.2 ± 0.04 mg/dL
Total proteins [1]: 6.3 ± 0.18 G/dL
Triglycerides [1]: 57.0 ± 17.10 mg/dL
White blood cells [1]: 7.9 ± 1.18 × 10^3 /mm^3
Number of deaths (male, 200 mg/kg i.v. every second day, 14 days): 0/5
Kidney weight to total body weight ratio (males): 0.9022 Weight Percent of Total Body W
Adrenals weight to total body weight ratio (rat, in vivo): 0.0212 Weight Percent of Total Body W
Clinical laboratory values vs controls (rat, in vivo): no observed clinically significant differences
Epididymes weight to total body weight ratio (rat, in vivo): 0.2635 Weight Percent of Total Body W
Organ to body ratios between groups (rat, in vivo): not different between the groups
Ovaries weight to total body weight ratio (rat, in vivo): 0.0574 Weight Percent of Total Body W
Prostate weight to total body weight ratio (rat, in vivo): 0.2091 Weight Percent of Total Body W
Testes weight to total body weight ratio (rat, in vivo): 1.0209 Weight Percent of Total Body W
Uterus weight to total body weight ratio (rat, in vivo): 0.3278 Weight Percent of Total Body W
Alanine amino transferase (rat, in vivo, iv, 200 mg/kg): 21.0 ± 2.30 IU/L
Albumin (rat, in vivo, iv, 200 mg/kg): 3.1 ± 0.08 G/dL
Alkaline phosphatase (rat, in vivo, iv, 200 mg/kg): 109.0 ± 16.20 IU/L
Aspartate amino transferase (rat, in vivo, iv, 200 mg/kg): 102.0 ± 162.00 IU/L
Basophils (rat, in vivo, iv, 200 mg/kg): 0.00 ± 0.00 × 10^3 /mm^3
Blood urea nitrogen (rat, in vivo, iv, 200 mg/kg): 13.2 ± 2.52 mg/dL
Calcium (rat, in vivo, iv, 200 mg/kg): 10.1 ± 0.82 mg/dL
Chlorine (rat, in vivo, iv, 200 mg/kg): 107.0 ± 2.60
Cholesterol (rat, in vivo, iv, 200 mg/kg): 52.0 ± 18.60 mg/dL
Creatinine (rat, in vivo, iv, 200 mg/kg): 0.8 ± 0.11 mg/dL
Eosinophils (rat, in vivo, iv, 200 mg/kg): 0.06 ± 0.04 × 10^3 /mm^3
Globulin (rat, in vivo, iv, 200 mg/kg): 3.4 ± 0.26 G/dL
Glucose (blood) (rat, in vivo, iv, 200 mg/kg): 100.0 ± 14.07 mg/dL
Hematocrit (rat, in vivo, iv, 200 mg/kg): 47.2 ± 5.59%
Hemoglobin (rat, in vivo, iv, 200 mg/kg): 13.6 ± 3.06 G/DL
Ionic phosphate (rat, in vivo, iv, 200 mg/kg): 8.3 ± 0.82 mg/dL
Lymphocytes (rat, in vivo, iv, 200 mg/kg): 6.80 ± 2.42 × 10^3 /mm^3
Mean corpuscle (rat, in vivo, iv, 200 mg/kg): 65.0 ± 2.70 fL
Mean corpuscle hemoglobin (rat, in vivo, iv, 200 mg/kg): 18.4 ± 2.41 pg
Monocytes (rat, in vivo, iv, 200 mg/kg): 0.05 ± 0.08 ×10^3 /mm^3
Normal blood cells (rat, in vivo, iv, 200 mg/kg): 0.0 ± 0.00 /100 white blood cells
Platelet count (rat, in vivo, iv, 200 mg/kg): 924 ± 395.20 × 10^3 /mm^3
Potassium (rat, in vivo, iv, 200 mg/kg): 4.5 ± 0.16 mmol/L
Red blood cell (rat, in vivo, iv, 200 mg/kg): 7.32 ± 1.00 × 10^6 /mm^3
Segmented neutrophils (rat, in vivo, iv, 200 mg/kg): 0.49 ± 0.22 × 10^3 /mm^3
Sodium (rat, in vivo, iv, 200 mg/kg): 141.0 ± 1.10 mM
Total bilirubin (rat, in vivo, iv, 200 mg/kg): 0.3 ± 0.05 mg/dL
Total proteins (rat, in vivo, iv, 200 mg/kg): 6.5 ± 0.38 G/dL
